From patent US11530186B2, “Inhibitors for the β-catenin / T-cell factor protein-protein interaction” (H. LEE MOFFITT CANCER CENTER AND RESEARCH INSTITUTE, INC., priority 2018, dated 2022)
Where two headings read alike, the source gives them in different places.

Tests used:
[1] = molecular target: T1, β-catenin/Tcf protein-protein interaction (Homo sapiens, UniProt P35222); assay: FP competitive inhibition assay; format: binding
T1 construct: Wild-type β-catenin (residues 138-781) were cloned into a pET-28b vector; 6×histidine (C); made in house; host or cells: E. coli BL21 DE3
T1 sequence (P35222 138-781): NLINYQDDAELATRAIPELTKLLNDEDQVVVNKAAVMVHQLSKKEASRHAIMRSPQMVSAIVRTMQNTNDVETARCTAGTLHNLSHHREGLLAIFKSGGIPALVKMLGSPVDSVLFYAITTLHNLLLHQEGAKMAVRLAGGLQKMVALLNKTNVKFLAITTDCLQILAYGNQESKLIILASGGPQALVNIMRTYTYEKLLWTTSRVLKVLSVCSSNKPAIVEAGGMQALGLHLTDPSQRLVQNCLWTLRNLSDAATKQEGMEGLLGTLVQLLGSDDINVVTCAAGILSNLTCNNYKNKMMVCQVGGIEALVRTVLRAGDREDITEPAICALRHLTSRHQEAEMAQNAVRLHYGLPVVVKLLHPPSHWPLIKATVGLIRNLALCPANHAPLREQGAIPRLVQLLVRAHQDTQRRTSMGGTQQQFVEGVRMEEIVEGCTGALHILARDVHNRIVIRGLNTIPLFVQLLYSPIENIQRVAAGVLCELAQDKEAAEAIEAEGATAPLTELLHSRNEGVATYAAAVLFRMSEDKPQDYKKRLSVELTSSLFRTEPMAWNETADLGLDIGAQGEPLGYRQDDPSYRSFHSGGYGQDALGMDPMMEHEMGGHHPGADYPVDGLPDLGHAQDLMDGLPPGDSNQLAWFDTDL
How it was run: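 His-tagged human β-catenin (residues 138-781, E. coli-expressed) at 10 nM with 2.5 nM fluorescein-labeled Tcf4 (7-51) in PBS-type buffer with bovine γ-globulin and 0.01% Triton X-100. Compounds added, 1.5 h at 4 °C, 1% DMSO, before fluorescence polarization read. IC50 by nonlinear fit; Ki derived from IC50.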

[2] = test system: SW480 cells; assay: MTS cell viability assay, SW480; format: cell-based; conditions: mean ± SD (n = 3)
Procedure: (§1) MTS Cell Viability Assay. Colorectal cancer cells (SW480 and HCT116), TNBC cells (MDA-MB-231, MDA-MB-468, and BT-20), and lung cancer A549 cells were seeded in 96-well plates at 5×10^3 cells/well, maintained overnight at 37° C., and incubated with the tested compounds at various concentrations. Cell viability was monitored after 72 h using a freshly prepared mixture of 1 part phenazine methosulfate (PMS, Sigma) solution (0.92 mg/mL) and 19 parts 3-(4,5-dimethylthiazol-2-yl)-5-(3-carboxymethoxyphenyl)-2-(4-sulfophenyl)-2H-tetrazolium (MTS, Promega) solution (2 mg/mL). Cells were incubated in 10 μL of this solution at 37° C. for 3 h, and A490 was measured. The effect of each compound is expressed as the concentration required to reduce A490 by 50% (IC50) relative to DMSO-treated cells. Experiments were performed in triplicate.

[3] = test system: A549 cells; assay: MTS cell viability assay, A549; format: cell-based; conditions: Homo sapiens, 72 h, mean ± SD (n = 3), Table 4, read-out: MTS cell viability IC50, Wnt normal A549
Procedure: as §1

[4] = test system: Wnt/β-catenin transactivation; assay: Wnt-responsive TOPFlash luciferase reporter assay, β-catenin-activated HEK cells; format: cell-based; conditions: HEK293, read-out: TOPFlash IC50 ± SD, β-catenin-activated HEK293, 24 h treatment, mean ± SD (n = 3), read-out: TOPFlash IC50 ± SD, β-catenin-activated HEK239
Procedure: Cell Transfection and Luciferase Assay. FuGENE 6 (E2962, Promega) in the 96-well plate format was used for the transfection of HEK293 cells according to the manufacturer's instructions. HEK293 cells were co-transfected with 45 ng of the TOPFlash or FOPFlash reporter gene, and 135 ng of pcDNA3.1-β-catenin. Cells were cultured in DMEM and 10% fatal bovine serum (FBS) at 37° C. for 24 h, and different concentrations of inhibitors were then added. After 24 h, the luciferase reporter activity was measured using the Dual-Glo system (E2940, Promega). Normalized luciferase activity in response to the treatment with the inhibitors was compared with that obtained from the cells treated with DMSO. Experiments were performed in triplicate.

[5] = test system: Wnt/β-catenin transactivation; assay: Wnt-responsive TOPFlash luciferase reporter assay, SW480; format: cell-based; conditions: Homo sapiens, mean ± SD (n = 3), Table 6
[6] = test system: HCT116 cells; assay: MTS cell viability assay, HCT116; format: cell-based; conditions: Homo sapiens, HCT-116; 72 h; mean ± SD (n = 3); Table 5; read-out: MTS cell viability IC50, Wnt hyperactive cancer cells HCT116
Procedure: as §1

[7] = Assay 1, mean ± SD (n = 3), read-out: Ki ± SD, Assay 1
[8] = Assay 2, mean ± SD (n = 3), read-out: Ki ± SD, Assay 2
[9] = Assay 3, mean ± SD (n = 3), read-out: Ki ± SD, Assay 3
[10] = Homo sapiens, SW480, 72 h, Table 4, read-out: MTS cell viability IC50, Wnt hyperactive SW480 Cells (converted)
[11] = Homo sapiens, SW480, 72 h, Table 5, read-out: MTS cell viability IC50, Wnt hyperactive cancer cells SW480

Row | SMILES | Ki [1, 7] [µM] | Ki [1, 8] [µM] | Ki [1, 9] [µM] | Ki ([1]; Assay 4, mean ± SD (n = 3), read-out: Ki ± SD, Assay 4) [µM] | IC50 [2, 10] [µM] | IC50 ([4]; Table 6) [µM] | IC50 [5] [µM] | IC50 [2, 11] [µM] | IC50 [6] [µM] | IC50 ([4]; Table 7) [µM] | IC50 ([2]; 72 h, Table 4, read-out: MTS cell viability IC50, Wnt hyperactive SW480 Cells (converted)) [µM] | IC50 [3] [µM]
1 | O=C(NCc1ccc(F)cc1)c1ccc2c(c1)c(CCc1ccc(F)cc1)c(CCc1nc3ccccc3s1)n2CCc1nn[nH]n1 [Compound 44, 1-(2-(2H-tetrazol-5-yl)ethyl)-2-(2-(benzo[d]thiazol-2-yl)ethyl)-N-(4-fluorobenzyl)-3-(4-fluoro-phenethyl)-1H-indole-5-carboxamide] | 1.6 ± 0.37 | 0.35 ± 0.15 | 1.3 ± 0.37 | 0.92 ± 0.06 | 12 ± 1.4 | 42 ± 5.8 | 12 ± 1.3 |  |  |  |  | 42 ± 5.8
2 | COC(=O)c1ccc2c(c1)c(CCc1ccc(Cl)cc1)c(CCc1nc3cc(OC)ccc3s1)n2CCc1nn[nH]n1 [Compound 35, Methyl 1-(2-(2H-tetrazol-5-yl)ethyl)-3-(4-chlorophenethyl)-2-(2-(5-methoxybenzo[d]thiazol-2-yl)ethyl)-1H-indole-5-carboxylate] | 4.1 ± 1.1 |  |  |  | 3.1 ± 1.8 | 11 ± 2.3 | 4.3 ± 1.2 |  |  |  | 3.2 | 13 ± 5.9
3 | COc1ccc2sc(CCc3c(CCc4ccc(Cl)cc4)c4cc(C(=O)OCc5ccc(Cl)cc5)ccc4n3CCc3nn[nH]n3)nc2c1 [Compound 70, 4-Chlorobenzyl 1-(2-(2H-tetrazol-5-yl)ethyl)-3-(4-chlorophenethyl)-2-(2-(5-methoxybenzo-[d]thiazol-2-yl)ethyl)-1H-indole-5-carboxylate] | 2.6 ± 0.57 | 0.22 ± 0.06 | 2.6 ± 0.32 |  | 160 ± 17 |  |  |  |  |  |  | 310 ± 27
4 | COc1ccc2sc(CCc3c(CCc4ccc(Cl)cc4)c4cc(C(=O)NCc5ccccn5)ccc4n3CCc3nn[nH]n3)nc2c1 [Compound 55, 1-(2-(2H-tetrazol-5-yl)ethyl)-3-(4-chlorophenethyl)-2-(2-(5-methoxybenzo[d]thiazol-2-yl)ethyl)-N-(pyridin-2-ylmethyl)-1H-indole-5-carboxamide] | 2.9 ± 0.5 | 5.1 ± 0.42 |  |  |  |  |  | 13 ± 1.7 | 20 ± 2.7 |  |  | 
5 | COc1ccc2sc(CCc3c(CCc4ccc(Cl)cc4)c4cc(C(=O)NCc5ccncn5)ccc4n3CCc3nn[nH]n3)nc2c1 [Compound 57, 1-(2-(2H-tetrazol-5-yl)ethyl)-3-(4-chlorophenethyl)-2-(2-(5-methoxybenzo[d]thiazol-2-yl)ethyl)-N-(pyrimidin-4-ylmethyl)-1H-indole-5-carboxamide] | 3.6 ± 0.35 | 2.8 ± 0.17 |  |  |  |  |  | 19 ± 1.6 | 24 ± 2.8 |  |  | 
6 | COc1ccc2sc(CCc3c(CCc4ccc(Cl)cc4)c4cc(C(=O)NCc5ccon5)ccc4n3CCc3nn[nH]n3)nc2c1 [Compound 62, 1-(2-(2H-tetrazol-5-yl)ethyl)-3-(4-chlorophenethyl)-N-(isoxazol-3-ylmethyl)-2-(2-(5-methoxybenzo[d]thiazol-2-yl)ethyl)-1H-indole-5-carboxamide] | 3.1 ± 0.18 | 7.6 ± 0.55 |  |  |  |  |  | 21 ± 2.1 | 28 ± 3.8 |  |  | 
7 | COc1ccc2sc(CCc3c(CCc4ccc(Cl)cc4)c4cc(C(=O)NCc5ccccc5N(C)C)ccc4n3CCc3nn[nH]n3)nc2c1 [Compound 54, 1-(2-(2H-tetrazol-5-yl)ethyl)-3-(4-chlorophenethyl)-N-(2-(dimethylamino)benzyl)-2-(2-(5-methoxybenzo[d]thiazol-2-yl)ethyl)-1H-indole-5-carboxamide] | 1.9 ± 0.14 | 3 ± 0.24 |  |  |  |  |  | 11 ± 1.5 | 11 ± 1.7 |  |  | 
8 | COc1ccc2sc(CCc3c(CCc4ccc(Cl)cc4)c4cc(C(=O)NCc5ccno5)ccc4n3CCc3nn[nH]n3)nc2c1 [Compound 61, 1-(2-(2H-tetrazol-5-yl)ethyl)-3-(4-chlorophenethyl)-N-(isoxazol-5-ylmethyl)-2-(2-(5-methoxybenzo[d]thiazol-2-yl)ethyl)-1H-indole-5-carboxamide] | 1 ± 0.094 | 2.9 ± 0.24 |  |  |  |  |  | 35 ± 4.3 | 40 ± 5.3 |  |  | 
9 | O=C(NCc1ccc(Cl)cc1)c1ccc2c(c1)c(CCc1ccc(F)cc1)c(CCc1nc3ccccc3s1)n2CCc1nn[nH]n1 [Compound 45, 1-(2-(2H-tetrazol-5-yl)ethyl)-2-(2-(benzo[d]thiazol-2-yl)ethyl)-N-(4-chlorobenzyl)-3-(4-fluoro-phenethyl)-1H-indole-5-carboxamide] | 0.97 ± 0.39 | 0.7 ± 0.02 |  |  |  |  |  | 14 ± 2.2 | 12 ± 1.9 |  |  | 

Now from value to compound, other results behind:

Row | Ki [1, 7] [µM] | Ki [1, 8] [µM] | Ki [1, 9] [µM] | Ki ([1]; Assay 4, mean ± SD (n = 3), read-out: Ki ± SD, Assay 4) [µM] | IC50 [2, 10] [µM] | IC50 ([4]; Table 6) [µM] | IC50 [5] [µM] | IC50 [2, 11] [µM] | IC50 [6] [µM] | IC50 ([4]; Table 7) [µM] | IC50 ([2]; 72 h, Table 4, read-out: MTS cell viability IC50, Wnt hyperactive SW480 Cells (converted)) [µM] | SMILES | IC50 [3] [µM]
10 | 0.34 ± 0.043 | 0.24 ± 0.043 |  |  |  |  |  | 115 ± 22 | 133 ± 4.1 |  |  | Cc1ccc(CCc2c(-c3ccsc3)n(CCc3nn[nH]n3)c3ccc(C(=O)NO)cc23)cc1 [Compound 90, 1-(2-(2H-tetrazol-5-yl)ethyl)-N-hydroxy-3-(4-methylphenethyl)-2-(thiophen-3-yl)-1H-indole-5-carboxamide] | 
11 | 10 ± 1.6 |  |  |  |  |  |  | 81 ± 17 |  | 50 ± 5.7 |  | Cc1ccc(CCc2c(-c3ccsc3)n(CCc3nn[nH]n3)c3ccc(C(=O)NOC4CCCCO4)cc23)cc1 (stereo not shown) [Compound 92, 1-(2-(2H-tetrazol-5-yl)ethyl)-3-(4-methylphenethyl)-N-((tetrahydro-2H-pyran-2-yl)oxy)-2-(thiophen-3-yl)-1H-indole-5-carboxamide] | 
12 | 2.7 ± 0.26 | 4.9 ± 0.36 | 26 ± 2.7 |  |  |  |  | 32 ± 3.6 | 46 ± 5.3 | 9.9 ± 1.5 |  | Cc1ccc(CCc2c(-c3csc(C(F)F)c3)n(CCc3nn[nH]n3)c3ccc(C(=O)NCc4ccon4)cc23)cc1 [Compound 94, 1-(2-(2H-tetrazol-5-yl)ethyl)-2-(5-(difluoromethyl)thiophen-3-yl)-N-(isoxazol-3-ylmethyl)-3-(4-methylphenethyl)-1H-indole-5-carboxamide] | 
13 |  |  |  |  | 69 ± 11 |  |  |  |  |  |  | COC(=O)c1ccc2c(c1)c(CCc1ccc(Cl)cc1)c(CCc1nc3ccccc3[nH]1)n2CCc1nn[nH]n1 [Compound 34, Methyl 2-(2-(1H-benzo[d]imidazol-2-yl)ethyl)-1-(2-(2H-tetrazol-5-yl)ethyl)-3-(4-chlorophenethyl)-1H-indole-5-carboxylate] | 120 ± 44
